These results are taken from PMC8696986, “Synthesis and evaluation of 3′-[^18F]fluorothymidine-5′-squaryl as a bioisostere of 3′-[^18F]fluorothymidine-5′-monophosphate” (RSC Advances, 2021).

Read-outs that look alike come from different tables or passages of the source.

Details of data set [1]: method as in PMID 12217356, PMID 27319940. The note with it: cited from earlier work.
For data set [2] the following is noted: cited from earlier work.
Data set [3] is described as follows: In vitro metabolite analysis in human liver microsomes. The format is in vitro ADME. The note with it: HLM, 37 °C, over 60 min. Here is the method:
A published method for performing in vitro metabolite analysis using liver microsomes was adapted.[35] [^18F]SqFLT (40 μL, 3.5 MBq) was added to human liver microsomes (50 μL, 1 mg mL^−1), NADPH regeneration system A (50 μL), NADPH regeneration system B (10 μL) and PBS (400 μL, 0.1 M) in a 1.5 mL microcentrifuge tube. The mixture was gently vortexed and incubated in aerobic conditions at 37 °C with gentle shaking for either 30 min or 60 min using a thermomixer. The mixture was transferred into a 15 mL plastic centrifuge tube and proteins were precipitated with ice-cold MeCN + 0.1% TFA (2 mL) and vortexed. Proteins were pelleted by centrifugation (12 000g, 3 min), and the supernatant removed and filtered (0.2 μm). The supernatant was diluted (1 : 9) with H2O + 0.1% TFA and injected onto a HPLC instrument bearing a 1 mL injection loop and PosiRam (LabLogic, Sheffield, UK) metabolite detector. Samples of a known volume were taken from the supernatant and the entire protein pellet were counted using an auto-gamma counter (Perkin Elmer, London, UK) to determine the extraction efficiency. All experiments were performed in triplicate (n = 3).
(§1) 6.0 Metabolite analysis in microsomes
Figure 31. Representative HPLC chromatograms showing A) parent [18F]SqFLT, and incubation of [18F]SqFLT with HLM for B) 30 mins and C) 60 mins. The extraction efficiency was 96.1 ± 0.4 %. […]
(In general: Liver microsomes are a subcellular fraction often used to study metabolism.)

The test system of the next data set is HCT116^shTMPK− cells. The experiment in a line: In vitro cell uptake of radiotracer in TMPK knockdown HCT116^shTMPK− cells. The conditions noted are these: 0.74 MBq, 60 min incubation, n = 6, mean ± SEM. It is filed as cell-based, human. How it is done:
(§2) HCT116 (human colon cancer; LGC Standards, Teddington, Middlesex, UK) and subsequent knockdown HCT116^shTMPK− cells were cultured in Roswell Park Memorial Institute Medium 1640 supplemented with 10% foetal bovine serum, 2% Penicillin-Streptomycin (5000 U mL^−1) and 1% L-Glutamine. Cells were maintained in a 5% CO2 humidified incubator at 37 °C and grown in 6-well plates at 300 000 cells per well or 1 500 000 cells (per 15 cm petri dish for HPLC) for the stated cell lines. All cells were grown for 24 h in a volume of 2 mL per well or 10 mL per petri dish unless stated otherwise. All cells were maintained at 60–70% confluence prior to experiments, passaged in our laboratory for fewer than 6 months on receipt and were tested mycoplasma free. Experiments were performed using cells under 10 passages.
Guide RNA (gRNA) sequences for CRISPR/Cas9 were generated from CRISPR design web site (http://crispr.mit.edu/), provided by the Feng Zhang Lab.[33] […]
[^18F]SqFLT (0.74 mBq per well) was added to individual wells and cells were incubated at 37 °C in a humidified atmosphere of 5% CO2 for 15, 30, 60, 90 and 120 min. […] Cell lysates were homogenized and transferred to radioactivity counting tubes. Radioactivity in each sample was counted using an auto-gamma counter (Perkin Elmer, London, UK). Total protein per sample was quantified using the Pierce™ BCA protein assay method. […]

Data set [4] is described as follows: Log D7.5 determination (shake flask method). It is filed as physicochemical. The note with it: octanol/PBS pH 7.5, mean ± SD, n = 3. How it is done: The hydrophilicity of [^18F]SqFLT (>90% RCP) was determined experimentally by its Log D7.5 using the shake flask method. […] Being a highly hydrophilic molecule, we were sceptical that [^18F]SqFLT would be cell permeable and aimed to determine this experimentally in radioactive cell uptake experiments.
To a 1.5 mL microcentrifuge tube was added PBS pH 7.5 (500 μL) and octanol (500 μL). The tube was shaken for 15 min, followed by centrifugation (13 000g, 5 min). [^18F]SqFLT (3 MBq) in PBS (<5% EtOH) was added and the samples shaken for 30 min, followed by centrifugation (13 000g, 5 min). Aliquots from the octanol layer and PBS layer were removed (100 μL) and placed in counting tubes. Radioactivity was measured using a γ-counter and the partition coefficient was calculated using Log D7.5 = log10[Oct/PBS]. The Log D7.5 value was reported as mean ± SD (n = 3, triplicate analysis).

The test system of another data set is WT HCT116 tumours. The experiment in a line: Dynamic PET imaging, WT HCT116 xenografts. The format is in vivo, female BALB/c athymic nude mice. How it is done:
(§3) Female BALB/c athymic nude mice (6–8 weeks old), injected subcutaneously with either mutant HCT116^shTMPK− or WT HCT116 (Charles River UK Ltd., Margate, UK) at 5 × 10^6 cells per mouse, using dynamic PET imaging (Fig. 5A). Inoculations were performed under 2% isoflurane/O2 anesthesia 7 days after animal arrival. All mice were aged 10–16 weeks with similar weight (20 ± 2 g) and kept under standard conditions in individually ventilated cages (maximum of 6 animals per cage) prior to experiments.
(§4) BALB/c mice (Charles River UK Ltd, Margate, UK) were anesthetized and scanned on a dedicated small animal PET scanner (G4 Genesis, Sofie Biosciences, Culver City, CA, USA) following a bolus injection of 0.75 MBq of [^18F]SqFLT via a lateral tail vein cannula. Imaging was performed under 2% isoflurane/O2 anaesthesia. After tracer injection, emission scans were acquired in list-mode format (over 0–60 min – dynamic scans) to give decay-corrected values of radioactivity accumulation in tissues. The collected data were reconstructed with a 3-dimensional maximum likelihood estimation method 3D ML-EM (Sofie Biosciences). Cumulative images of the data were used for visualization of radiotracer uptake and to define tissue volumes of interest (VOIs) using Siemens Inveon Research Workplace software (Siemens Molecular Imaging, Inc. Knoxville, USA). Tissue radioactivity uptake values were normalized to injected dose and mouse weight.

Data set [5] deals with TK1 and ENT1/2 ([^18F]FLT uptake in HCT116 cells). The experiment in a line: In vitro competition assay between [^18F]FLT and thymidine/[^19F]SqFLT. The format is cell-based, human. How it is done:
HCT116 were plated and maintained at 60–70% confluence in complete media conditions as previously described. […] Treated cells were incubated at 37 °C for 20 min before [^18F]FLT was added to each well to yield a final concentration of 0.74 mBq per well. Cells were subsequently incubated in a humidified atmosphere of 5% CO2 for 1 h before being lysed and gamma counted as previously described.
as §1
Figure 31. Representative HPLC chromatograms showing A) parent [18F]SqFLT, and incubation of [18F]SqFLT with HLM for B) 30 mins and C) 60 mins.
The experiment was performed in triplicate (n = 3)
7.0 Gene structure and positions of CRISPR and PCR primers.
Figure 32. Diagram (not to scale) indicates overall gene structure and positions of the CRISPRS […]
8.0 Determining if [18F]SqFLT is a substrate for TK1 and ENT1/2 […]
and B) [19F]SqFLT to determine the effect on [18F]FLT uptake. HCT116 cells (at 60 – 70 % […]
for 20 min prior to co-incubation with [18F]FLT (0.74 MBq). Radioactive uptake normalised […]

Another data set deals with WT HCT116 cells. The experiment in a line: In vitro cell uptake of radiotracer in WT HCT116 cells. It is filed as cell-based, human. Here is the method: as §2
[^18F]SqFLT (0.74 mBq per well) was added to individual wells and cells were incubated at 37 °C in a humidified atmosphere of 5% CO2 for 15, 30, 60, 90 and 120 min. Following incubation, cells were washed three times with 1× PBS and lysed once ice for 15 min using RIPA buffer (1 mL per well). Cell lysates were homogenized and transferred to radioactivity counting tubes. Radioactivity in each sample was counted using an auto-gamma counter (Perkin Elmer, London, UK). Total protein per sample was quantified using the Pierce™ BCA protein assay method. Decay corrected counts were normalized to protein concentration as percentage incubated dose per milligram of cellular protein (%ID per mg protein) in each sample.

For another data set, the system named is HCT116^shTMPK− tumours. The experiment in a line: Dynamic PET imaging, HCT116^shTMPK− xenografts. The conditions noted are these: mutant HCT116^shTMPK− xenograft, 2–10 min post-injection, PET time–activity curve. The format is in vivo, female BALB/c athymic nude mice. Here is the method: as §3
as §4, with “Cumulative images of the data were used for visualization of radiotracer uptake and to define tissue volumes of interest (VOIs) using Siemens Inveon Research Workplace software (Siemens Molecular Imaging, Inc. Knoxville, USA).” left out

Data set [6] has as its target T1, ABCB1 transporter (HCT116 cells) (Homo sapiens, UniProt P08183).
T1 construct: endogenous in cells; host or cells: HCT116 cells
The experiment in a line: Efflux assay with verapamil. The note with it: verapamil 3 μM, 1 h pre-incubation then 1 h co-incubation. The format is cell-based. Here is the method:
HCT116 cells were plated and maintained at 60–70% confluence in complete media conditions as previously described. Following 24 h, cell media was aspirated and treated with media containing 3 μM verapamil for 1 h prior to co-incubation with 0.74 mBq of [^18F]SqFLT. Cells were subsequently incubated for a further 1 h before being lysed and gamma counted as previously described.
9.0 Determining if [18F]SqFLT is a substrate for multidrug resistance proteins
0.00 Control 1 h Verapamil
Figure 34. Uptake of [18F]SqFLT in HCT116 cells following treatment with Verapamil. HCT 116 cells were pre-incubated with Verapamil (3 µM) for 60 min followed by co-incubated with [18F]SqFLT (0.74 MBq). One-way Anova statistical analysis and Dunnets post hoc was performed for n = 5 samples.
10.0 Time activity curves (TAC)
Figure 35. Time-activity curves derived from region-of-interest analysis of PET imaging data (including detail of uptake kinetics between 0-5 min of [18F]SqFLT injection) in bladder, kidneys and gallbladder. Data represent mean ± SEM (n>5) and is expressed as % of injected […]
1 M. Yun, S. J. Oh, H. J. Ha, J. S. Ryu and D. H. Moon, Nucl. Med. Biol., 2003, 30, 151–
2 C. N. Tetzlaff, I. Schwope, C. F. Bleczinski, J. A. Steinberg and C. Richert, Tetrahedron
(also on this page, place not known: [18F]-SqFLT (% ID/mg protein) uptake of 4215–4218.)
(1 picture or pasted object on this page, not shown here)

T1 sequence (P08183 whole entry): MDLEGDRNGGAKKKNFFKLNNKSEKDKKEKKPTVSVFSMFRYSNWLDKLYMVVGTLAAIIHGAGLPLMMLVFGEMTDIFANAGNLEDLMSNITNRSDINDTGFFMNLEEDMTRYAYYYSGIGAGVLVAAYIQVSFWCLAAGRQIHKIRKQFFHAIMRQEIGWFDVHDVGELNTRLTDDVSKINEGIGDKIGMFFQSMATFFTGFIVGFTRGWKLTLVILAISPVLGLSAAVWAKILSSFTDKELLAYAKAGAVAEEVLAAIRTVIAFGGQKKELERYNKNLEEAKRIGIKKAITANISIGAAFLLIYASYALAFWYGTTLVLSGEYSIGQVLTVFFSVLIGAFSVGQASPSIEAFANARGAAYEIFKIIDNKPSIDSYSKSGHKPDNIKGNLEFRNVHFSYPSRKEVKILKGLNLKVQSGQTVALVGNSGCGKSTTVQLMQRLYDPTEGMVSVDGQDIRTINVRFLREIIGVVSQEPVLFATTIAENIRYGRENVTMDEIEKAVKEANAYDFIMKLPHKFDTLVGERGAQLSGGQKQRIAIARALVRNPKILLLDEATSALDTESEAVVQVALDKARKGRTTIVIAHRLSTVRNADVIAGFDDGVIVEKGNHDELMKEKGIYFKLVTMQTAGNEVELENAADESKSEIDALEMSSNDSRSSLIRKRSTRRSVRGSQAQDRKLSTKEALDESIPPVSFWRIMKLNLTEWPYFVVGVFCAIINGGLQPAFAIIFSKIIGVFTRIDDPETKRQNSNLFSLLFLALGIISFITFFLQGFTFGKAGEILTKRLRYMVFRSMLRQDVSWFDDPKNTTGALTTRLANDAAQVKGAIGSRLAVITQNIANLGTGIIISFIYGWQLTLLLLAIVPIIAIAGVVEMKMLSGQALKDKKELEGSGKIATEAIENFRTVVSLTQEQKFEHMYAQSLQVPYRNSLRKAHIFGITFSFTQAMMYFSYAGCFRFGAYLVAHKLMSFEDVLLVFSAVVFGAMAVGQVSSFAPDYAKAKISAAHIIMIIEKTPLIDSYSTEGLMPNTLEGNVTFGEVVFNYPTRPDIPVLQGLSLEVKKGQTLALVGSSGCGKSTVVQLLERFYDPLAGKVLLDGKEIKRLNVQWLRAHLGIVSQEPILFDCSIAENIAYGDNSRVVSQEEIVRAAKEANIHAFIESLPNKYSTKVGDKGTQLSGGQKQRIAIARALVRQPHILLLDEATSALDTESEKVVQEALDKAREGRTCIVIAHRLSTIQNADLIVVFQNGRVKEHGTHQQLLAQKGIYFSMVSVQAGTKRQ

On to “3′-[^18F]fluorothymidine-5′-monophosphate [[^18F]FLTMP]”, for which the “monophosphate pKa” value is on record as 1.6 in [1] (first value) and 6.6 in data set [1] (second value).

For `O=c1c(O)c(NCc2ccccc2)c1=O` [3-(benzylamino)-4-hydroxycyclobut-3-ene-1,2-dione], the permeability result in data set [2] (PAMPA) is reported as “significantly higher permeability compared to a phosphate analogue”. Further, the “Log D7.4” value in data set [2] (pH 7.4) is −1.4.

By logD is commonly meant lipophilicity at a set pH, counting ionised and neutral species. The low end stands for a more hydrophilic compound, the high end for a more lipophilic compound. Regarding `Cc1cn([C@H]2C[C@H]([18F])[C@@H](CNc3c(O)c(=O)c3=O)O2)c(=O)[nH]c1=O` [[^18F]SqFLT, 3′-[^18F]fluorothymidine-5′-squaryl], in [3], the “metabolism in human liver microsomes” value is listed as “no metabolism over 60 min”. Moreover, the “uptake of [^18F]SqFLT” value with HCT116^shTMPK− cells worked out at 0.14 ± 0.04 % ID g^−1; in the data set with WT HCT116 cells (WT HCT116, 0.74 MBq, 60 min incubation, n = 6, mean ± SEM), 0.24 ± 0.04 % ID mg^−1. For the same compound, the logD in data set [4] is -2.9 ± 0.24. The “peak radiotracer uptake in tumour” value in the data set with WT HCT116 tumours (WT HCT116 xenograft, 2–10 min post-injection, PET time–activity curve) is on record as 2.69 ± 0.12 % ID g^−1; in the data set with HCT116^shTMPK− tumours it was 1.58 ± 0.12 % ID g^−1. The route of elimination result in the data set with WT HCT116 tumours (mice, PET time-activity curves) is “eliminated through the kidney, liver, and bladder”. Besides, the “time of peak radiotracer uptake in tumour” value in the data set with WT HCT116 tumours (post-injection, WT and mutant xenografts, 60 min dynamic PET scan) lay within 2 to 10 min. The “dependence of uptake on TK1 and nucleoside transporters (ENT1/2)” value in [5] (inferred from competition of [^19F]SqFLT (1–10 μg mL^−1) with [^18F]FLT) was “independent of TK1 and nucleoside transporters (ENT1/2)”. Moreover, in the data set on WT HCT116 cells (HCT116 and HCT116^shTMPK− cells, as summed up in the abstract), the “tracer uptake in vitro” value is given as less than 0.3 % ID mg^−1. Further, in the data set with WT HCT116 cells (WT HCT116, between 15–120 min), the drop of uptake was 2 fold. Further, the “time of peak uptake” value with WT HCT116 cells (WT HCT116, uptake kinetic profile over 120 min) fell in the range of 0 to 15 min. Also, the “effect of verapamil on radiotracer uptake” value in data set [6] is on record as “did not change radiotracer uptake”.

On to `Cc1cn([C@H]2C[C@H](F)[C@@H](CNc3c(O)c(=O)c3=O)O2)c(=O)[nH]c1=O` [[^19F]SqFLT, 5′-amino-5′-N-(2-hydroxy-3,4-dioxocyclobuten-1-yl)-5′,3′-deoxy-3′-fluoro-thymidine], for which the “effect on [^18F]FLT uptake” value in data set [5] (10^−3–10^1 μg mL^−1, 20 min before [^18F]FLT, then 1 h) was “did not inhibit [^18F]FLT uptake”.
